Measured values: patent US12569464B2, “Protein-protein interaction inducing technology” (Arvinas Operations, Inc., priority 2016, dated 2026)

Experiments:
Androgen Receptor = target: T1, Androgen Receptor (Homo sapiens, UniProt P10275); experiment: Cell-based ligand (R1881) displacement assay, binary binding to AR; conditions: read-out: binary binding potency IC50^AR in cells
T1 construct: expressed in transfected cells; host or cells: HEK293
T1 sequence (P10275 1-920): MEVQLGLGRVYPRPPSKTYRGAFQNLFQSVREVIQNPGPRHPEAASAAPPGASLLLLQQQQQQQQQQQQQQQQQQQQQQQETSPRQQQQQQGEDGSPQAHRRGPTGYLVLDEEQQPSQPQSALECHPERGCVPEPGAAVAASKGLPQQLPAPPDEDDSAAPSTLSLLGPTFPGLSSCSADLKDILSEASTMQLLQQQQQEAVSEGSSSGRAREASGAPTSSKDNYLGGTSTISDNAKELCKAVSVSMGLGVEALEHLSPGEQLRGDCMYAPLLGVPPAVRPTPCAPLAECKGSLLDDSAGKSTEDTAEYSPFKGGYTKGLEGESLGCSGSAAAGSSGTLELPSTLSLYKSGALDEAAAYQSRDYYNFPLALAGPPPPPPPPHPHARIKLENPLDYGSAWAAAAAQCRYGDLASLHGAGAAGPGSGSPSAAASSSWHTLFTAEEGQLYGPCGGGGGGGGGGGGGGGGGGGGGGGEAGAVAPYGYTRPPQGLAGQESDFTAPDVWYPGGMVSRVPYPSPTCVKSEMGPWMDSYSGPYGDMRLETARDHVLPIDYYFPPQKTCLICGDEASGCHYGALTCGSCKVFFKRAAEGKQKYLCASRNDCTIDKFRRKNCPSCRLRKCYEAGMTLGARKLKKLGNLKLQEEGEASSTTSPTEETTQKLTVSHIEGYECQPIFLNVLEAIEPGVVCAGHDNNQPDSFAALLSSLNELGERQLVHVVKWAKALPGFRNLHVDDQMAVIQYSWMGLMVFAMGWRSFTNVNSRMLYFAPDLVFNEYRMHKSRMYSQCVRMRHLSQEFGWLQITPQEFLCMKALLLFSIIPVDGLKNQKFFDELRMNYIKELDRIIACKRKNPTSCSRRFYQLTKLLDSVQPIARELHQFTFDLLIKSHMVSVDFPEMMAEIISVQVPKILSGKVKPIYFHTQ
Method: It is composed of an AR-binding warhead which is connected to a VHL-binding warhead by a linear connector. […] MD simulation of a ternary system composed of AR ligand-binding domain, a ligand and the complex of VHL with elongin B (EB) and elongin C (EC) in the presence of explicit water was performed. The ligand in the simulation is a close analog of the ligand L above and only differs from the ligand L above by having a methyl substitution at the 4-position of the thiazole group.
(§1) The connector linking the AR-binding warhead and the VHL-binding warhead was systematically probed from 4 to 23 atoms. The AR degradation potency DC50 and the maximum percentage of degradation Dmax of AR in LNCaP cells were measured for each of these compounds. […] The binary binding potency with respect to AR was also measured for some of the compounds by the cell-based ligand (R1881) displacement assay. The ratio α between the AR-binding potency and the degradation potency are calculated when it is possible.
The experimental protocol is based on reference Gustafson et al. (Angew. Chem. Int. Ed., 54: 9659-9662). HEK293 cells were transiently transfected using Fugene 6 to overexpress wildtype Androgen Receptor. During binding assay, transfected cells were grown in DMEM supplemented with 10% charcoal-stripped FBS. Cells were treated for two hours with the indicated competitor compound in the presence of 0.1 nM ^3H-R1881. Cells were washed in PBS, lysed in 200 ul lysis buffer (2% SDS, 10% Glycerol, 10 mM Tris-HCl [pH 6.8]), and cleared with the addition of 300 ul of 10 mM Tris-HCl (pH 8.0). 300 ul of these lysates were added to 3 mL of Cytoscint (MP Biomedicals), and scintillation counting was performed on a Beckman LS 6000SC instrument. Counts (cpm) were normalized to total protein amount in each sample, as determined via the Pierce BCA Protein Assay Kit (Thermo Scientific) per the manufacturer's instructions.

AR = target: T2, AR (Homo sapiens, UniProt P10275+P40337, T878A); experiment: AR degradation in LNCaP cells (androgen receptor ELISA); format: cell-based; conditions: for DC50 / Dmax / maximum AR degradation Dmax: LNCaP cells; for DC50: read-out: AR degradation potency DC50; for Dmax: read-out: maximum AR degradation Dmax
T2 construct: degradation Dmax of AR in LNCaP cells; endogenous in cells; host or cells: LNCaP
T2 sequence (Q15370 whole entry): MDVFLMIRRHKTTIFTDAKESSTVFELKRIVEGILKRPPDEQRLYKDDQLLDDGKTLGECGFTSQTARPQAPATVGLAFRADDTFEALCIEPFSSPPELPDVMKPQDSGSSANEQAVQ
T2 sequence (P40337 whole entry): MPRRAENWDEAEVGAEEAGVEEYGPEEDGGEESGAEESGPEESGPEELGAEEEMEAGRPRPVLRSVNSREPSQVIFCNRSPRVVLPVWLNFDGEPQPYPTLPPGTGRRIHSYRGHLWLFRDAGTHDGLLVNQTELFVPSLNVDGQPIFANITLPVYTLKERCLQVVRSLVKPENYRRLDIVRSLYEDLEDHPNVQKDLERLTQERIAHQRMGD
T2 sequence (P10275 whole entry T878A): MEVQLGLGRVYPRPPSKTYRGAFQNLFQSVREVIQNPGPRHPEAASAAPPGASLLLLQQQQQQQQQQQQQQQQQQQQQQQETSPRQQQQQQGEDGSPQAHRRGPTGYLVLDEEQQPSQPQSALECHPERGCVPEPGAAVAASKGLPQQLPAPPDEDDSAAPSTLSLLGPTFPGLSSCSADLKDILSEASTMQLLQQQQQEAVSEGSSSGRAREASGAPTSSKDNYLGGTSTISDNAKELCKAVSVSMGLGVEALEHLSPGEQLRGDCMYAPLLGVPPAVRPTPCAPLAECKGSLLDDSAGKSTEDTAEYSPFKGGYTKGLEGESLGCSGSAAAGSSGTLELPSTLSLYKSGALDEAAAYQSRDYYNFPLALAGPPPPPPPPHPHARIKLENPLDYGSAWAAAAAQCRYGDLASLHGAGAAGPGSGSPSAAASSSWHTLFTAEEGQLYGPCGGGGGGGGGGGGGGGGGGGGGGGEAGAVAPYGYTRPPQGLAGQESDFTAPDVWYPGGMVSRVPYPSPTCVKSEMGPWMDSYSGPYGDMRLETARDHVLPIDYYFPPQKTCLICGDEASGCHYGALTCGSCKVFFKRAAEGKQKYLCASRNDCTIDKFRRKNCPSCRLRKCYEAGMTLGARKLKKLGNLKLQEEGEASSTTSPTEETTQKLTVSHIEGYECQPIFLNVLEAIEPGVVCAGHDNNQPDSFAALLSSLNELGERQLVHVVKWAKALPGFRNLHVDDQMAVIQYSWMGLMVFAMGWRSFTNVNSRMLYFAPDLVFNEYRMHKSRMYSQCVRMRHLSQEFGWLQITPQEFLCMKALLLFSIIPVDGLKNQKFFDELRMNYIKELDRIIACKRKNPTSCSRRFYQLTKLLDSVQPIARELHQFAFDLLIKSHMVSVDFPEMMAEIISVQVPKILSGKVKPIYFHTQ
T2 sequence (Q15369 whole entry, further chain): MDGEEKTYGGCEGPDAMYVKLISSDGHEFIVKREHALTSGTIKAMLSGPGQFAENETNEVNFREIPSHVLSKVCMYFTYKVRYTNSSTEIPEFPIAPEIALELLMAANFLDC
Method: as §1
Androgen Receptor ELISA Assay
The protocols used with VCaP cells are described below. The androgen receptor ELISA assay was performed using PathScan AR ELISA (Cell Signaling Catalog #12850) according to the following assay steps: […]

| SMILES | IC50 (Androgen Receptor) [nM] | DC50 (AR) [nM] | Dmax (AR) [%] | ratio α between AR-binding potency IC50 and degradation potency DC50 (AR) | maximum AR degradation Dmax (AR) [%] |
| --- | --- | --- | --- | --- | --- |
| Cc1ncsc1-c1ccc(CNC(=O)[C@@H]2C[C@@H](O)CN2C(=O)[C@@H](NC(=O)CCCOc2ccc(N3C(=S)N(c4ccc(C#N)c(C(F)(F)F)c4)C(=O)C3(C)C)cc2)C(C)(C)C)cc1 [Compound 1] | 970 | > 3000 | 35 | – | – |
| Cc1ncsc1-c1ccc(CNC(=O)[C@@H]2C[C@@H](O)CN2C(=O)[C@@H](NC(=O)COCCOc2ccc(N3C(=S)N(c4ccc(C#N)c(C(F)(F)F)c4)C(=O)C3(C)C)cc2)C(C)(C)C)cc1 [Compound 2] | 2140 | 1700 | – | <1 | 51 |
| Cc1ncsc1-c1ccc(CNC(=O)[C@@H]2C[C@@H](O)CN2C(=O)[C@@H](NC(=O)COCCCOCCCCCOc2ccc(N3C(=S)N(c4ccc(C#N)c(C(F)(F)F)c4)C(=O)C3(C)C)cc2)C(C)(C)C)cc1 [Compound 9] | 810 | 34.4 | – | 23.5 | 83 |
| Cc1ncsc1-c1ccc(CNC(=O)[C@@H]2C[C@@H](O)CN2C(=O)[C@@H](NC(=O)COCCCCOCCCCCOc2ccc(N3C(=S)N(c4ccc(C#N)c(C(F)(F)F)c4)C(=O)C3(C)C)cc2)C(C)(C)C)cc1 [Compound 10] | – | 60 | – | – | 77 |
| Cc1ncsc1-c1ccc(CNC(=O)[C@@H]2C[C@@H](O)CN2C(=O)[C@@H](NC(=O)COCCOCCOCCCCCOc2ccc(N3C(=S)N(c4ccc(C#N)c(C(F)(F)F)c4)C(=O)C3(C)C)cc2)C(C)(C)C)cc1 [Compound 11] | 1150 | 11 | – | 105 | 60 |
| Cc1ncsc1-c1ccc(CNC(=O)[C@@H]2C[C@@H](O)CN2C(=O)[C@@H](NC(=O)COCCOCCOCCCOCCOCCOc2ccc(N3C(=S)N(c4ccc(C#N)c(C(F)(F)F)c4)C(=O)C3(C)C)cc2)C(C)(C)C)cc1 [Compound 14] | 4950 | 220 | 52 | – | – |
| Cc1ncsc1-c1ccc(CNC(=O)[C@@H]2C[C@@H](O)CN2C(=O)[C@@H](NC(=O)COCCOCCOCCCCOCCOCCOc2ccc(N3C(=S)N(c4ccc(C#N)c(C(F)(F)F)c4)C(=O)C3(C)C)cc2)C(C)(C)C)cc1 [Compound 15] | 3480 | 29 | 58 | – | – |
| Cc1ncsc1-c1ccc(CNC(=O)[C@@H]2C[C@@H](O)CN2C(=O)[C@@H](NC(=O)COCCOCCOCCOCCOCCOCCOc2ccc(N3C(=S)N(c4ccc(C#N)c(C(F)(F)F)c4)C(=O)C3(C)C)cc2)C(C)(C)C)cc1 [Compound 16] | 1750 | 3000 | 90 | – | – |
| Cc1ncsc1-c1ccc(CNC(=O)[C@@H]2C[C@@H](O)CN2C(=O)[C@@H](NC(=O)COCCOCCCCOCCCCOCCOCCOc2ccc(N3C(=S)N(c4ccc(C#N)c(C(F)(F)F)c4)C(=O)C3(C)C)cc2)C(C)(C)C)cc1 [Compound 17] | 1420 | > 3000 | 43 | – | – |
| Cc1ncsc1-c1ccc(CNC(=O)[C@@H]2C[C@@H](O)CN2C(=O)[C@@H](NC(=O)COCCOCCCCCOCCCCCOCCOCCOc2ccc(N3C(=S)N(c4ccc(C#N)c(C(F)(F)F)c4)C(=O)C3(C)C)cc2)C(C)(C)C)cc1 [Compound 18] | 960 | > 3000 | – | <1 | 47 |
